Data reported in US20230097293A1, “LMP1 TARGETING LANTHANIDE COMPLEXES AND METHODS OF USE THEREOF” (BP InnoMed Limited, priority 2021, published 2023).
Where a SMILES comes first, the peptide text is derived from it. [ ]: non-standard residue; d: D form. dPra = C#CC[C@@H](N)C(=O)O; Ahx = NCCCCCC(=O)O

Assays:
Format in all cases: cell-based
[1] = test system: weakly LMP1-positive (C666-1) and LMP1-negative cell lines (HeLa, MRCS); assay: MTT cytotoxicity assay, weakly LMP1-positive or LMP1-negative cells
Procedure: (§1) To study the effects of the designed probes on cell survival, the MTT cytotoxicity assay was carried out in several highly LMP1-positive (LCL3, AFB1, AG876), weakly LMP1-positive (C666-1) and LMP1- negative cell lines (HeLa, MRCS), as shown in FIG. 9.
(§2) LCL3, AG876, AFB1 and C666-1 cells were grown in RPMI-1640 medium. HeLa cells were cultivated in DMEM medium and MRCS cells are cultivated in MEM medium (Gibco, USA). All media are supplemented with 10% fetal bovine serum and 1% penicillin/streptomycin antibiotics. All the cells are cultivated in a humidified incubator with 5% CO2 at 37° C. The pTRE-EGFP plasmid was transduced into LCL3 cells as previously mentioned.

NF-κB p65 and p50 = assay: Western blot of nuclear NF-κB p65 and p50; settings: for nuclear p65 and p50 expression: LCL3 and AFB1, TNFα 10 ng/mL pre-treatment, compared with control
Procedure: Western blot analysis was also carried out to validate the above imaging results for the components in NF-κB pathway. The LMP1-overexpressing LCL3 and AFB1 cell lines were used for this analysis. […] After 24 hours incubation, the nuclear extracts were separated for each treatment, and the expression of NF-κB p65 and p50 was detected by Western blot analysis. […] Western blots of individual replicates for NF-κB p65 and p50 in different cell lines were illustrated in FIG. 14. […] The reduction in NF-κB activity can contribute to the cytotoxicity of the three compounds towards LMP1-overexpressing cells.
Cells with different treatments were harvested and washed with phosphate-buffered saline (PBS). Lysis buffer supplied by 1X proteases-phosphatase inhibitor were added into the cells for 5 min on ice. Then the samples were centrifuged at 14,000×g at 4° C. for 20 minutes. The fractionated cell lysates were subjected to SDS-PAGE gel and transferred onto PVDF membranes. Membranes were then blocked by 3% non-fat milk for 30 minutes at room temperature and incubated with specific primary antibodies at 4° C. overnight. They were then washed with TBST buffer and incubated with corresponding secondary antibodies for 1 h at room temperature. Then, the membranes were washed with TBST, and chemiluminescence substrate was added onto the membrane surface. ChemiDoc XRS system and Image Lab Software were used to visualize the blot.

NF-κB p65 = assay: Immunofluorescence imaging of NF-κB p65 after TNFα activation; settings: for effect on p65 fluorescence signal: LCL3, 10 μM, 24 h, TNFα 10 ng/ml preincubation
Procedure: (§3) We then investigate the inhibitory effects of our anti-LMP1 conjugates on the NF-κB pathway, which is one of the major pathways that EBV has hijacked for promoting cell growth and proliferation in EBV-associated tumours. Since NF-κB is typically activated by the canonical pathway which involves the nuclear translocation of the heterodimer of p50 and p65, immunofluorescence imaging of NF-κB p65 was then performed. Tumour necrosis factor alpha (TNFα) was added to these tumour cells, so as to activate the NF-κB pathway.
These assays were prepared and conducted at room temperature, unless otherwise stated. Cells with different treatment were fixed by formalin for 15 min. The samples were then washed with PBS and 0.2% Triton-X buffer was added onto the samples for 15 min. 3% BSA in PBS was served as the blocking buffer and applied onto the sample for 30 minutes at room temperature. The primary antibody was diluted in blocking buffer and added onto the sample at 4° C. overnight. The samples were washed with PBS and corresponding secondary antibodies were added over 1 h. Samples were washed with PBS and mountant was applied to each sample. Images were acquired either using a 370 nm laser excitation or from a 370 nm LED excitation of a Nikon Eclipse Ti2 Confocal Microscope. NIR images were captured by a NIRvana TE 640 camera. The signal enhancement of the C666-1 images were obtained by enhancing the exposure of the captured images by the NIS element AR software. Multiphoton microscopy was conducted by Leica TCS SP8 MP System.

NF-κB activity = assay: pTRE-EGFP reporter of NF-κB activity in LCL3 cells; settings: LCL3, 6 hours
Procedure: as §3
The antibodies including anti-LMP1 were purchased from Kerafast, while anti-NF-κB p65, anti-NF-κB p105/50, anti-histone H3, anti-GAPDH were purchased from Cell Signaling Technology. Anti-rabbit IgG HRP-linked, anti-mouse IgG HRP-linked, protease/phosphatase inhibitor cocktail were purchased from Cell Signaling Technology. Alexa Fluor 488-conjugated goat anti-mouse IgG, NucBlue fixed cell ready probes (DAPI), and ProLong gold antifade mountant with DAPI were purchased from Invitrogen. The transcriptional response element (TRE)-fluorescent protein reporter, pTRE-EGFP plasmid, was constructed as previously reported.
LCL3, AG876, AFB1 and C666-1 cells were grown in RPMI-1640 medium. HeLa cells were cultivated in DMEM medium and MRCS cells are cultivated in MEM medium (Gibco, USA). All media are supplemented with 10% fetal bovine serum and 1% penicillin/streptomycin antibiotics. […]

[2] = MTT cytotoxicity assay, all selected cell lines; settings: read-out: LC50 (the source's name)
Procedure: as §1, §2

| SMILES | cytotoxicity [1] | changes in expression of p65 and p50 (NF-κB p65 and p50; C666-1 and HeLa cells) | nuclear p65 and p50 expression (NF-κB p65 and p50) | effect on p65 fluorescence signal (NF-κB p65) | effect on NF-κB pathway (p65 fluorescence) (NF-κB p65; LMP1-negative HeLa and weak LMP1-expressing C666-1 cells) | GFP reporter signals (NF-κB activity) | CC50 [2] |
| --- | --- | --- | --- | --- | --- | --- | --- |
| C#CC[C@@H](N)C(=O)N[C@@H](CCCCN)C(=O)NCCCCCC(=O)N[C@@H](CCCCN)C(=O)N[C@@H](CC(C)C)C(=O)N[C@@H](CC(=O)O)C(=O)N[C@@H](CC(C)C)C(=O)N[C@@H](C)C(=O)N[C@@H](CC(C)C)C(=O)N[C@@H](CCCCN)C(=O)N[C@@H](Cc1ccccc1)C(=O)N[C@@H](Cc1c[nH]c2ccccc12)C(=O)N[C@@H](CC(C)C)C(=O)N[C@@H](Cc1ccc(O)cc1)C(=O)N[C@@H](CCCCN)C(=O)N[C@H](C(=O)N[C@H](C(=O)N[C@@H](CCSC)C(=O)N[C@@H](CO)C(=O)N[C@@H](CC(=O)O)C(=O)N[C@@H](CCCCN)C(=O)N[C@@H](Cc1c[nH]c2ccccc12)C(=O)N[C@@H](CCCCN)C(=O)N[C@@H](CCCNC(=N)N)C(=O)N[C@H](CCCNC(=N)N)C(=O)N[C@@H](CCCNC(=N)N)C(=O)N[C@@H](CCCCN)C(=O)O)C(C)C)[C@@H](C)CC [P19, Pra-KAhx-K-LDLALK-FWLY-K-IVMSDKW-K-RrRK] (H-[dPra]K[Ahx]KLDLALKFWLYKIVMSDKWKR[dR]RK-OH; N-terminus and C-terminus assumed) | relatively low | relatively minor | significantly weakened | significant suppression | did not exhibit any effect | decreased |  |
| C#CC[C@@H](N)C(=O)N[C@@H](CCCCN)C(=O)NCCCCCC(=O)N[C@@H](CCCCN)C(=O)N[C@@H](CC(C)C)C(=O)N[C@@H](CC(=O)O)C(=O)N[C@@H](CC(C)C)C(=O)N[C@@H](C)C(=O)N[C@@H](CC(C)C)C(=O)N[C@@H](CCCCN)C(=O)N[C@@H](C)C(=O)N[C@@H](C)C(=O)N[C@@H](C)C(=O)N[C@@H](C)C(=O)N[C@@H](CCCCN)C(=O)N[C@H](C(=O)N[C@H](C(=O)N[C@@H](CCSC)C(=O)N[C@@H](CO)C(=O)N[C@@H](CC(=O)O)C(=O)N[C@@H](CCCCN)C(=O)N[C@@H](Cc1c[nH]c2ccccc12)C(=O)N[C@@H](CCCCN)C(=O)N[C@@H](CCCNC(=N)N)C(=O)N[C@H](CCCNC(=N)N)C(=O)N[C@@H](CCCNC(=N)N)C(=O)N[C@@H](CCCCN)C(=O)O)C(C)C)[C@@H](C)CC [P19C, reference compound] (H-[dPra]K[Ahx]KLDLALKAAAAKIVMSDKWKR[dR]RK-OH; N-terminus and C-terminus assumed) |  |  | no obvious change | no significant effect |  |  | > 200 µM |
